Assay results taken from US20130274258A1, “CARBAZOLE AND CARBOLINE DERIVATIVES, AND PREPARATION AND THERAPEUTIC APPLICATIONS THEREOF” (PHILIP MORRIS PRODUCTS S.A., priority 2010, published 2013).
Read-outs that look alike come from different tables or passages of the source.

Assays:
purified porcine tubulin = purified porcine tubulin (Sus scrofa, UniProt P02550+P02554); assay: Inhibition of 3H-labeled colchicine binding to purified tubulin, scintillation proximity assay; conditions: graded doses
Experimental: A series of compounds according to the invention and C14 vincristine and colchicine were tested for their capacity to inhibit ^3H-labeled colchicine binding to purified tubulin. Briefly, a limiting amount of tritium-labeled colchicine and graded doses of test compounds were added to purified porcine tubulin. After an incubation period, radioactivity associated with tubulin was determined using a scintillation proximity assay. […] By showing that these compounds interact with the colchicine binding site, it differentiates them from the tubulin inhibitors of the Vinca alkaloid- and taxane-types. The results also indicate that the compounds of the invention can be used in combination with the Vinca alkaloid- and taxane-types of tubulin inhibitors since they bind to a different aspect of tubulin, and likely affect tubulin polymerization via a different mechanism. The results also indicate that the compounds of the invention can be used even in patients who are refractory or non-responsive to other tubulin inhibitors, such as the tubulin inhibitors of the Vinca alkaloid- and taxane-types.

Jurkat cells = assay: Jurkat cell viability, resazurin (Alamar Blue) assay; assay type: cell-based; conditions: Homo sapiens
Experimental: The compounds were tested for pharmacological activity. In each of the tests, each compound was tested at […] in duplicates. […] The percentage of response relative to the DMSO control was then calculated for the mean value of the duplicates of each test. The values of the three tests were finally averaged and the standard deviations calculated.
Jurkat cells (10'000 cells/well) were incubated in the presence of various concentrations of compounds, doxorubicin or staurosporine. Twenty-two hours later, cells were incubated with resazurin (20 μg/ml) for 4 hours and fluorescence was measured at 590 nm.

[1] = Pharmacokinetics after intravenous injection, plasma concentration; assay type: in vivo; conditions: mice, intravenous, after four hours
Experimental: The pharmacokinetics of E3 and E35 were investigated. Mice intravenously injected with 15 mg/kg of E3 were bled after 0, 1, 5, 10, 20, 30, 60, 120 and 480 minutes. […] For E35, mice intravenously injected with 30 mg/kg of […] were bled after 0, 1, 5, 10, 20, 30, 60, 120 and 480 minutes. […] Concentration then decreased steadily over the 8 hours of the study. During the first four hours after injection, circulating concentrations of E3 and E35 were found largely similar.

[2] = Solubilization in intravenous formulation; assay type: physicochemical; conditions: 5% Cremophor and 5% ethanol in water
From the text: This formulation was then used for the subsequent animal studies (maximal tolerated dose, pharmacokinetics and efficacy in cancer models).

colon carcinoma HCT116 = assay: Xenograft model in nude mice, colon carcinoma HCT116; assay type: in vivo, human; conditions: reference compound
Experimental: (§1) The compounds of the invention were evaluated in human tumor xenograft mouse models. Nude mice were subcutaneously implanted with tumor cells (melanoma A2058, colon carcinoma HCT116, fibrosarcoma HT1080 and acute myelocytic leukemia MV114) and when the tumor reached a volume of about 100-150 mm^3, treatment was initiated. Tumor growth was followed over time until tumor volume reached 1000-1500 mm^3 or up to 60 days. An example of how tumor developed over time when the animals were administered or not with E3 three times once a week (qwk×3) is presented in FIG. 7. […]

caspase 3 and 7 = assay: Apoptosis induction in Jurkat cells, caspase 3 and 7 assay; assay type: cell-based; conditions: for IC50: Homo sapiens, Jurkat cells, caspase 3/7 assay
Experimental: Compounds were assessed for their ability to induce apoptosis of Jurkat cells at 2 and 10 micromolar after 4 and 22 hours.
In order to firmly establish that the compounds of the invention cause cytotoxicity through apoptosis, IC50 of five compounds of the invention, doxorubicin and staurosporin were determined in the caspase assays; results are presented in Table 2. Importantly, the IC50 determined in the Alamar Blue and in the caspase assays were largely overlapping.

fibrosarcoma HT1080 = assay: Xenograft model in nude mice, fibrosarcoma HT1080; assay type: in vivo, human; conditions: reference compound
Experimental: as §1

melanoma A2058 = assay: Xenograft model in nude mice, melanoma A2058; assay type: in vivo, human; conditions: reference compound
Experimental: as §1

[3] = test system: acute myelocytic leukemia MV114; assay: Xenograft model in nude mice, acute myelocytic leukemia MV114; assay type: in vivo, human; conditions: reference compound
Experimental: as §1

[4] = Jurkat cells, 22 h then resazurin 4 h, three experiments in duplicates, read-out: IC50

Sequence of purified porcine tubulin (P02554 whole entry): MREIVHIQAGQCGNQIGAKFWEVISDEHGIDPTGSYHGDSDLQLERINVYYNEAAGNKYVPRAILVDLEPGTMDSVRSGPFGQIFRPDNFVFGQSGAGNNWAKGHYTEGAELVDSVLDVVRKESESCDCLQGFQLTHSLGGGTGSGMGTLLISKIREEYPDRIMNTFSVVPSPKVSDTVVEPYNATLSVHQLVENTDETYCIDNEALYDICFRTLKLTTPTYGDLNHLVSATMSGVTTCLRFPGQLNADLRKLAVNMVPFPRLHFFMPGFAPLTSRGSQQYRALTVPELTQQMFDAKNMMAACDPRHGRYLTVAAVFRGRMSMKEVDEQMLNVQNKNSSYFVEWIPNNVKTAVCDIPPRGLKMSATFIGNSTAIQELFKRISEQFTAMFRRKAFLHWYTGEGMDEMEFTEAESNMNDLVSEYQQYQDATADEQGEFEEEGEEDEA
Sequence of purified porcine tubulin (P02550 whole entry): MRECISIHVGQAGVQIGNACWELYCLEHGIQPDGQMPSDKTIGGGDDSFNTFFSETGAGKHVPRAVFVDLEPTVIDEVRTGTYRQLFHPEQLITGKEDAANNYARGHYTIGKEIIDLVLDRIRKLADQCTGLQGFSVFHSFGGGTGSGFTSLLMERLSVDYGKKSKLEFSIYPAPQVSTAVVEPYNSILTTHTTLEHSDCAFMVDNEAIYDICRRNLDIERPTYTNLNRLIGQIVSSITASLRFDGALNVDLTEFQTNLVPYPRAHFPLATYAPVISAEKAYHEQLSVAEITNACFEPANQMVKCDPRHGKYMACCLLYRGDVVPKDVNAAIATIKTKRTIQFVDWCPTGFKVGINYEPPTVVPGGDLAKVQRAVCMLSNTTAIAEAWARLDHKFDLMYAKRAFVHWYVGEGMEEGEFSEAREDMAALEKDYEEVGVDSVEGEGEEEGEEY

COc1cc(-c2ccc3[nH]c4c(C)nccc4c3c2)cc(OC)c1OC [Example C14]
inhibition of 3H-labeled colchicine binding to tubulin (purified porcine tubulin): did not inhibit colchicine binding | IC50 (Jurkat cells; [4]): > 10000 nM

CCc1nccc2c1[nH]c1ccc(-c3cccc(C(N)=O)c3)cc12 [Example E35, 6-(3-aminocarbonylphenyl)-1-ethyl-9H-pyrido[3,4-b]indole]
circulating concentration compared with E3 [1]: substantially lower circulating concentration than E3 | inhibition of 3H-labeled colchicine binding to tubulin (purified porcine tubulin): inhibited binding of colchicine | suitability of the formulation [2]: adequate | IC50 (Jurkat cells; Jurkat): 4 nM

CCc1nccc2c1[nH]c1ccc(-c3cccc(NS(C)(=O)=O)c3)cc12 [Example E44, N-(3-(1-ethyl-9H-pyrido[3,4-b]indol-6-yl)phenyl)methanesulfonamide]
inhibition of 3H-labeled colchicine binding to tubulin (purified porcine tubulin): inhibited binding of colchicine | suitability of the formulation [2]: adequate | IC50 (Jurkat cells; Jurkat): 90 nM

CCc1c2c(nc3ccc(OC(=O)N4CCC(N5CCCCC5)CC4)cc13)-c1cc3c(c(=O)n1C2)COC(=O)[C@]3(O)CC [Irinotecan, reference compound]
Control with reference compound and days to study endpoint (colon carcinoma HCT116): not reached by day 58 days

Cc1nccc2c1[nH]c1ccc(-c3ccccc3)cc12 [Example E1, 6-phenyl-1-methyl-9H-pyrido[3,4-b]indole]
caspase 3 and 7 activity compared to solvent control (%) (caspase 3 and 7; 2 μM after 4 h): −8.5% | caspase 3 and 7 activity compared to solvent control (%) (caspase 3 and 7; 2 μM after 22 h): 618.5% | caspase 3 and 7 activity compared to solvent control (%) (caspase 3 and 7; 10 μM after 4 h): −10.0% | caspase 3 and 7 activity compared to solvent control (%) (caspase 3 and 7; 10 μM after 22 h): 535.9% | IC50 (Jurkat cells; [4]): 413 nM

CC(=O)O[C@@]12CO[C@@H]1C[C@H](O)[C@@]1(C)C(=O)[C@H](O)C3=C(C)[C@@H](OC(=O)[C@H](O)[C@@H](NC(=O)OC(C)(C)C)c4ccccc4)C[C@@](O)([C@@H](OC(=O)c4ccccc4)[C@H]21)C3(C)C [Docetaxel, reference compound]
Control with reference compound and days to study endpoint (fibrosarcoma HT1080): not reached by day 58 days

CC[C@]1(O)C[C@@H]2CN(CCc3c([nH]c4ccccc34)[C@@](C(=O)OC)(c3cc4c(cc3OC)N(C)[C@H]3[C@@](O)(C(=O)OC)[C@H](OC(C)=O)[C@]5(CC)C=CCN6CC[C@]43[C@@H]65)C2)C1 [Vinblastine, reference compound]
Control with reference compound and days to study endpoint (melanoma A2058): Vinblastine, 45 days | Control with reference compound and days to study endpoint [3]: not reached by day 58 days

Cc1nccc2c1[nH]c1ccc(-c3cccc(C#N)c3)cc12 [Example E21, 6-(3-cyanophenyl)-1-methyl-9H-pyrido[3,4-b]indole]
IC50 (caspase 3 and 7): 0.061 µM | IC50 (Jurkat cells; [4]): 47 nM

Cc1nccc2c1[nH]c1ccc(-c3cccc(Cl)c3)cc12 [Example E2, 6-(3-chlorophenyl)-1-methyl-9H-pyrido[3,4-b]indole]
IC50 (caspase 3 and 7): 0.108 µM | IC50 (Jurkat cells; [4]): 104 nM
